Measured values published in article PMC7601839, “Anti-Acne Effects of Cembrene Diterpenoids from the Cultured Soft Coral Sinularia flexibilis” (Marine Drugs, 2020).

What was measured:
iNOS [1] = tested on: iNOS; parameters: method as in PMID 23774887; conditions: LPS-stimulated RAW264.7 macrophage cells; cited from earlier work
COX-2 [2] = tested on: COX-2; parameters: method as in PMID 23774887; conditions: LPS-stimulated RAW264.7 macrophage cells; cited from earlier work
iNOS [3] = tested on: iNOS; parameters: method as in PMID 23675440; conditions: LPS-stimulated murine macrophages; cited from earlier work
COX-2 [4] = tested on: COX-2; parameters: method as in PMID 23675440; conditions: LPS-stimulated murine macrophages; cited from earlier work
HaCaT cells [5] = conditions: 20 nM, 48 h
Method: (§2) HaCaT cells (10^5 cells/mL) were seeded in 96-well plates and co-treated with testosterone (5 μg/mL) or DHT (5 μg/mL) and test samples with no cytotoxicity for 48 h [2, 25, 26]. Cell proliferative activity was detected by an MTT assay.

HaCaT cells [6] = assay: cells; conditions: Homo sapiens, read-out: HaCaT cell viability
Method: as §2

[7] = tested on: LPS-induced RAW 264.7 cells (NO production); assay: NO production (Griess) in LPS-induced RAW 264.7 cells; type: cell-based
Method: (§1) Anti-inflammatory effects were analyzed in RAW 264.7 cells, which were cultured in DMEM with 10% FBS, 1% L-glutamine, and 1% penicillin-streptomycin, and maintained at 37 °C in a 5% CO2 atmosphere. RAW 264.7 cells (4.0 × 10^5 cells/mL) were seeded in 96-well plates and co-treated with LPS (500 ng/mL) and test samples. After 24 h, NO production was determined by Griess reagent, and the absorption was detected at 530 nm. The percentage inhibition of NO production was presented as the anti-inflammatory activity. PGE2 concentrations in cell culture media were determined with a PGE2 enzyme-linked immunosorbent assay (ELISA) kit (Enzo Life Sciences, Farmingdale, NY, USA). The survival rate of RAW 264.7 cells was detected using an MTT assay.

RAW 264.7 cells = assay: Survival rate of RAW 264.7 cells by MTT assay; type: cell-based; conditions: LPS-induced RAW 264.7 cells, 24 h, 20 μM
Method: as §1

A375 melanoma cells = tested on: A375 melanoma cells; parameters: method as in PMID 23880933; conditions: cited from earlier work

Question: For C=C1C(=O)O[C@]2(C)CC[C@@H]1C[C@@H]1O[C@@]1(C)CC/C=C(\C)CC[C@H]2OC(C)=O [Ya-s11, 11-Episinulariolide acetate], which “accumulation of the proinflammatory iNOS protein” value (iNOS [1]) is on record?
Answer: The value was “significantly inhibit”.

Question: What about the “accumulation of COX-2 protein” value (COX-2 [2]) of the same molecule?
Answer: The value was “could reduce”.

Question: What about the “expression of induced nitric oxide synthase (iNOS)” value (iNOS [3]) of the same molecule?
Answer: The value was “inhibits the expression”.

Question: And the “expression of cyclooxygenase (COX)-2” value (COX-2 [4])?
Answer: Its value is “inhibits the expression”.

Question: For C[C@]12CCC(=O)C[C@@H]1CC[C@@H]1[C@@H]2CC[C@]2(C)[C@@H](O)CC[C@@H]12 [DHT, dihydrotestosterone], which HaCaT cell proliferation (HaCaT cells [5]) is on record?
Answer: The HaCaT cell proliferation was “significantly induced”.

Question: And the viability at 0.1 µg/mL (HaCaT cells [6])?
Answer: Its viability at 0.1 µg/mL is 97.6%.

Question: What about the viability at 0.5 µg/mL (HaCaT cells [6]) of the same molecule?
Answer: Its viability at 0.5 µg/mL is 103%.

Question: And the viability at 1 µg/mL (HaCaT cells [6])?
Answer: Its viability at 1 µg/mL is 105%.

Question: And the viability at 5 µg/mL (HaCaT cells [6])?
Answer: Its viability at 5 µg/mL is 118%.

Question: Which “inhibitory effects on NO expression” value [7] does the source give for sinulariolide [SC-4] here?
Answer: Its value is “no inhibitory effects”.

Question: And the “NO Inhibition (%)” value ([7]; 24 h, 20 μM)?
Answer: Its value is −4.3 ± 1.6%.

Question: And the “Cell Viability (%)” value (RAW 264.7 cells)?
Answer: The value was 98.8 ± 1.2%.

Question: What about the “accumulation of the proinflammatory iNOS protein” value (iNOS [1]) of the same molecule?
Answer: The value was “significantly inhibit”.

Question: And the “proliferation and migration of A375 melanoma cells” value (A375 melanoma cells)?
Answer: Its value is “inhibits the proliferation and migration”.

Question: With C[C@]12CC[C@H]3[C@@H](CCC4=CC(=O)CC[C@@]43C)[C@@H]1CC[C@@H]2O [testosterone] as the molecule, how does the HaCaT cell proliferation (HaCaT cells [5]) read?
Answer: The HaCaT cell proliferation was “significantly induced”.
